Source: US20130209439A1, “INHIBITORS OF PDE4 BINDING TO HSP20” (THE UNIVERSITY COURT OF THE UNIVERSITY OF GLASGOW, priority 2010, published 2013)

T1: HSP20, wild type, transfected into HEKB2 / HEK293 cells (human, UniProt O14558 1-160)
T1 construct: Expressed from pcDNA6.2-Hsp20 (Gateway cloning into pcDNA6.2/V5-DEST); Immunopurified from cell lysates; also called HSP20 wt
T1 sequence: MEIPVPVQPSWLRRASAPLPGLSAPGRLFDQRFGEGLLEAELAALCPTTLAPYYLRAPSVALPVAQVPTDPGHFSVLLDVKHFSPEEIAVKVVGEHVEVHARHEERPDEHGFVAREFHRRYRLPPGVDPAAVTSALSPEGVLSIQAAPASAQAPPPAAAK

B1: His-HSP20 (purified recombinant His-tagged HSP20) (other)
chain: T1 sequence
notes: Expressed in E. coli BL21 from pET28c and purified on nickel; also called HSP20-His; HSP20-6His; not shown: His tag from the pET28c vector
B2: GST-PDE4D5 (enzyme)
chain: MAQQTSPDTLTVPEVDNPHCPNPWLNEDLVKSLRENLLQHEKSKTARKSVSPKLSPVISPRNSPRLLRRMLLSSNIPKQRRFTVAHTCFDVDNGTSAGRSPLDPMTSPGSGLILQANFVHSQRRESFLYRSDSDYDLSPKSMSRNSSIASDIHGDDLIVTPFAQVLASLRTVRNNFAALTNLQDRAPSKRSPMCNQPSINKATITEEAYQKLASETLEELDWCLDQLETLQTRHSVSEMASNKFKRMLNRELTHLSEMSRSGNQVSEFISNTFLDKQHEVEIPSPTQKEKEKKKRPMSQISGVKKLMHSSSLTNSSIPRFGVKTEQEDVLAKELEDVNKWGLHVFRIAELSGNRPLTVIMHTIFQERDLLKTFKIPVDTLITYLMTLEDHYHADVAYHNNIHAADVVQSTHVLLSTPALEAVFTDLEILAAIFASAIHDVDHPGVSNQFLINTNSELALMYNDSSVLENHHLAVGFKLLQEENCDIFQNLTKKQRQSLRKMVIDIVLATDMSKHMNLLADLKTMVETKKVTSSGVLLLDNYSDRIQVLQNMVHCADLSNPTKPLQLYRQWTDRIMEEFFRQGDRERERGMEISPMCDKHNASVEKSQVGFIDYIVHPLWETWADLVHPDAQDILDTLEDNREWYQSTIPQSPSPAPDDPEEGRQGQTEKFQFELTLEEDGESDTEKDSGSQVEEDTSCSDSKTLCTQDSESTEIPLDEQVEEEAVGEEEESQPEACVIDDRSPDT
notes: Expressed in E. coli and purified; Printed both GST-PDE4D5 and PDE4D5-GST; also called PDE4D5-GST; not shown: glutathione-S-transferase (GST) tag
B3: PDE4D5 (transfected into HEKB2 / HEK293 cells) (enzyme)
chain: B2 chain

Columns and labels:
[1] = system: Phospho-Ser16 HSP20 in HEKB2 cells; assay: Ser16 phosphorylation of HSP20 in HEKB2 cells overexpressing HSP20 (Western blot); assay type: cell-based; conditions: HEKB2 cells transfected with wt HSP20, isoprenaline 1 μM, indicated times
Method: FIG. 1. The phosphorylation of HSP20 at Ser16 is modulated by PDE4 activity in HEKB2 cells. A, HEKB2 cells overexpressing HSP20 or HSP20 ser16-Ala mutant were treated with isoprenaline for indicated times. Cellular lysates were blotted for HSP20 and Phospho-Ser16 HSP20. B, HEKB2 cells overexpressing HSP20 were treated with isoprenaline for indicated times, Cellular lysates were blotted for HSP20 and Phospho-Ser16 HSP20. C, HEKB2 cells overexpressing HSP20 were treated with isoprenaline for indicated times following pre-treatment with the PDE4-specific inhibitor, rolipram. Cellular lysates were blotted for HSP20 and Phospho-Ser16 HSP20. D, Quantifications of data from FIGS. 1B and 1C (n=4). * Denotes significance at a level p<0.05 E, Lysate from untransfected HEKB2 cells was blotted for HSP20 and Phospho-Ser16 HSP20.
(§1) HEK293B2 cells are a stable cell line overexpressing the GFP-tagged β2AR were cultured as previously described^48. HEK293B2 cells were transiently transfected with wild type HSP20 or a phosphorylation defective HSP20 (S16A) or a phosphorylation mimic HSP20 (S16D). Neonatal cardiac myocytes were prepared and cultured as previously described^30. Cell lysis, immunopurification and western blotting was done as described before by us in some detail^48. Briefly, HEK 293 cells were transiently transfected with wild-type HSP20 by using Polyfect Transfection Reagent (Qiagen). Transfected HEK 293 cells were treated with 10 μM bs906 or 10 μM control peptide for 0, 15, 30, 60 and 120 min. Control and treated transfected HEK 293 cells were then washed thrice with ice cold PBS (phosphate buffered saline) before cellular lysates were prepared. Cellular lysates were prepared in lysis buffer containing 25 mM Hepes, pH 7.5, 2.5 mM EDTA, 50 mM NaCl, 50 mM NaF, […], 10% (v/v) glycerol, 1% (v/v) Triton X-100 and Complete™ EDTA-free protease inhibitor cocktail tablets (Roche). Protein concentration of lysates were determined using the Bradford assay and all samples were equalised for protein concentration. Proteins were separated by SOS/PAGE (4-12% Bis-Tris gels) and transferred onto nitrocellulose membranes for Western blotting. Antibodies were used to detect phospho-proteins and native proteins in lysates from control and treated cells
In contrast to this, when we transfected these cells with a phospho-null mutant form, Ser16Ala-Hsp20, then no such change was observed (FIG. 1A). In order to evaluate whether PDE4 activity played a role in regulating this phosphorylation process in Hsp20-transfected HEKB2 cells, cells that had either been pre-treated or not with the PDE4 selective inhibitor rolipram were subsequently challenged with isoprenaline (1 μM) (FIGS. 1B and C). […] Endogenous levels of phospho-HSP20 or HSP20 were not detectable in HEKB2 cells (FIG. 1E).

[2] = system: neonatal cardiac myocytes; assay: Cardiac myocyte cell size, manual cross-sectional area; assay type: cell-based, rat; conditions: 24 hour isoprenaline 10 μM, 30 min pre-treatment with 10 μM peptide
Method: (§2) FIG. 7. Peptide disruption of the PDE4D-HSP20 complex attenuates the hypertrophic response triggered by constant […]-agonist treatment. A, Upper panel. The area covered by isolated cardiac myocytes was used as a measure of cell size. Lower panel, Graphical depiction of the mean areas (N=100) of cells following 24 hours of indicated treatments. B, impedance measurements were used to calculate continuous normalised cell index using exCELLigence technology Normalised mean (n=4) cell index after 24 hours of indicated treatments.
Cardiomyocytes were plated out on gelatin (Sigma) pre-coated 6-well plates and placed in an incubator at 37° C. and an atmosphere of 5% CO2. After 24 h the cardiomyocytes were cultured in a serum-free condition for 48 h before experiments. The cardiomyocytes were then challenged for 24 h with either 10 μM isoprenaline alone or isoprenaline following a 30 min pre-treatment with 10 μM rolipram, 10 μM bs906 or 10 μM control peptide. Thereafter, cell size was determined on phase-contrast microscope. […] from randomly selected microscope images (400×) were captured digitally and analysed. Cross-sectional area was determined by the following formula: cross-sectional area=(radius)^2×π. Values are expressed as means±SE of five separate culture preparations. A f-test was performed to compare the two groups, and the P values are indicated.

[3] = system: neonatal cardiac myocytes; assay: Cardiac myocyte size by xCELLigence impedance (normalised cell index); assay type: cell-based, rat; conditions: 24 hour isoprenaline 10 μM, 30 min pre-treatment with 10 μM peptide
Method: as §2
The E-Plate 96 (Roche) was used for these experiments^45. This comprises a 96-well plate with integral sensor electrode arrays to measure cell impedance. […] E-plate 96 is a 96-well microtiter plate with incorporated gold cell sensor arrays in the bottom, which allows impedance inside each well to be monitored and assayed in real time. […] The impedance measured between electrodes in an individual well depends on electrode geometry, ion concentration in the well and whether or not cells are attached to the electrodes^45. In the absence of cells, electrode impedance is mainly determined by the ion environment both at the electrode/solution interface and in the bulk solution. […] Small changes in impedance can also be recorded when cells temporally change shape or size in response to agonists^46,57. […]

PDE4 = PDE4 activity associated with HSP20 immunoprecipitates from cardiac myocytes; assay type: cell-based, rat; conditions: isoprenaline 1 μM
Method: FIG. 3. HSP20 forms a complex with members of the PDE4 family of phosphodiesterases. A (upper panel), Immunopurification (Ips) of HSP20 from cellular lysates isolated from myocytes following treatment with Isoprenaline (1 μM) were blotted for the presence of PDE4D isoforms. B, (lower panel) The PDE4 activity associated with HSP20 Ips was determined. C, Members of the PDE4D sub-family of PDE4s were co-expressed with HSP20 in HEKB2 cells. HSP20 Ips were probed for PDE4D isoforms.
PDE activity was measured using a radioactive cAMP hydrolysis assay that has been described previously^56. [8-^3H]adenosine cyclic-3,5′-mono-phosphate was sourced from Amersham Biosciences (Little Chalfont, U.K.) and cyclic-3′,5′-mono-phosphate from Sigma.
Immunopurification (Ips) of HSP20 from cardiac myocytes were screened for associating PDE4 by Western blotting analysis and cAMP PDE assay (FIG. 3A).

[4] = system: Phospho-Ser16 HSP20 in neonatal cardiac myocytes; assay: Ser16 phosphorylation of endogenous HSP20 in neonatal cardiac myocytes (Western blot); assay type: cell-based, rat; conditions: neonatal cardiomyocytes, isoprenaline challenge
Method: FIG. 2. The phosphorylation of HSP20 at Ser16 is modulated by PDE4 activity in cardiac myocytes. A, Neonatal cardiac myocytes were treated with isoprenaline for indicated times with or without pre-treatment with the PDE4-specific inhibitor, rolipram. Cellular lysates were blotted for HSP20 and Phospho-Ser16 HSP20. B, Quantifications of data from FIG. 2A (n=3). * Denotes significance at a level p<0.05 over iso treatment.
as §1
To determine whether inhibition of PDE4 activity had similar effects on endogenous phospho-HSP20 levels in heart cells, similar experiments were undertaken using neonatal cardiomyocytes (FIG. 2).

GST alone = molecular target: T2, GST alone (UniProt P08515 1-218 = GST); assay: GST pull-down with purified recombinant proteins, immunoblot
T2 construct: Control of the pull-down
Method: (§3) GST-PDE4 fusions proteins (500 μl of 2 μM) were mixed with 100 μl slurry of 50% (v/v) PBS-washed Glutathione beads for 2 h at 4° C. The beads were pelleted by centrifugation (14,000 g, 1 min) and washed twice with PBS containing 1% Triton X-100 before the addition of equal molar amounts of […] fusion protein in a 1 mL solution of PBS and Triton X-100 containing 5 mM dithiothreitol. After a 2 h incubation at 4° C. the beads were collected and washed three times with PBS and eluted in 100 μl of 2× Laemmli buffer. Eluates were resolved by SDS-PAGE, and the HSP20-His fusion proteins were detected by immunoblotting.
(§4) To evaluate further Hsp20 association with PDE4, we set out to determine whether they interacted directly. In order to do this we expressed Hsp20 and various PDE4 species in E. coli and purified them for use in pull-down assays. […] Additionally, we performed the converse experiment and first did pull-downs of HSP20, using its His tag, and then tested for co-purification of PDE4 species.

[5] = molecular target: B1; assay: GST pull-down with purified recombinant proteins, immunoblot (data not shown)
Method: as §3, §4

[6] = molecular target: T1, HSP20, wild type, transfected into …; assay: co-immunopurification with HSP20 from co-transfected HEKB2 cells, Western blot
Method: HEK293B2 cells are a stable cell line overexpressing the GFP-tagged β₂AR were cultured as previously described⁴⁸. HEK293B2 cells were transiently transfected with wild type HSP20 or a phosphorylation defective HSP20 (S16A) or a phosphorylation mimic HSP20 (S16D). […] Cell lysis, immunopurification and western blotting was done as described before by us in some detail⁴⁸. Briefly, HEK 293 cells were transiently transfected with wild-type HSP20 by using Polyfect Transfection Reagent (Qiagen). […] Control and treated transfected HEK 293 cells were then washed thrice with ice cold PBS (phosphate buffered saline) before cellular lysates were prepared. Cellular lysates were prepared in lysis buffer containing 25 mM Hepes, pH 7.5, 2.5 mM EDTA, 50 mM NaCl, 50 mM NaF, μM sodium pyrophosphate, 10% (v/v) glycerol, 1% (v/v) Triton X-100 and Complete™ EDTA-free protease inhibitor cocktail tablets (Roche). Protein concentration of lysates were determined using the Bradford assay and all samples were equalised for protein concentration. […] Antibodies were used to detect phospho-proteins and native proteins in lysates from control and treated cells
As before, we immunopurified HSP20 and blotted for the presence of transfected isoforms (FIG. 38).

T2 sequence (P08515 whole entry): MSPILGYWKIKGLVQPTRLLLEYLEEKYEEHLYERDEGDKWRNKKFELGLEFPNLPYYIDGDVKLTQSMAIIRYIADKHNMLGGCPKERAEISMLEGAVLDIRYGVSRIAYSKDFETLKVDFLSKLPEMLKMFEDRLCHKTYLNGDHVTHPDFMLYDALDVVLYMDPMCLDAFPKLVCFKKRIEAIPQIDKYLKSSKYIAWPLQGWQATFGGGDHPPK

CC(C)NCC(O)c1ccc(O)c(O)c1 (centres unmarked) [isoprenaline]
phosphorylation of Hsp20 at Ser16 [1]: time dependent phosphorylation of Hsp20 at Ser16 | cell size (cross-sectional area) of cardiac myocytes [2]: marked increase in cell size | cell size (normalised cell index, impedance) of cardiac myocytes [3]: marked increase in cell size | increase in PDE4 activity associated with HSP20 immunoprecipitates vs untreated lysates (PDE4): 2.5 fold | endogenous phospho-HSP20 levels [4]: induced an increase in endogenous phospho-HSP20 levels

B1
binding result (GST alone): no binding

B2
binding result [5]: binds

B3
binding result [6]: binds
